Organism: Rattus norvegicus
Test: Open TG-GATES - Regimen: Single
Type: toxicity, organism-based, Sprague-Dawley
Parameters: regimen Single, gender Male, age 6 weeks
Details: in vivo, po, 0 mg/kg, route gavage, dose level Control; for APTT / Bas / Eos / Fbg / Hb / Ht / Lym / MCH / MCHC / MCV / Mono / Neu / PT / Plat / RBC / Ret / WBC: tissue Blood; for KIDNEY_L / KIDNEY_R / KIDNEY_TOTAL: tissue Kidney; for LIVER: tissue Liver; for A/G / ALP / ALT / AST / BUN / CRE / Ca / Cl / DBIL / GLC / IP / K / LDH / Na / PL / RALB / TBIL / TC / TG / TP / gamma-GTP: tissue Plasma

Nc1nc(N)c2nc(-c3ccccc3)c(N)nc2n1
TERMINAL_BW (3 h): 212 g
APTT (3 h): 16.9 s
Bas (3 h): 0%
Eos (3 h): 1%
Fbg (3 h): 287.4 mg/dL
Hb (3 h): 13.9 g/dL
Ht (3 h): 42%
Lym (3 h): 79.2%
MCH (3 h): 21.4 pg
MCHC (3 h): 33%
MCV (3 h): 64.6 fL
Mono (3 h): 3.2%
Neu (3 h): 16%
PT (3 h): 14.2 s
Plat (3 h): 114.1 x10_4/uL
RBC (3 h): 651 x10_4/ul
Ret (3 h): 7.4%
WBC (3 h): 92.6 x10_2/uL
KIDNEY_L (3 h): 1 g
KIDNEY_R (3 h): 1 g
KIDNEY_TOTAL (3 h): 1.9 g
LIVER (3 h): 9.3 g
A/G (3 h): 1
ALP (3 h): 1479.4 IU/L
ALT (3 h): 44.2 IU/L
AST (3 h): 76.6 IU/L
BUN (3 h): 9.4 mg/dL
CRE (3 h): 0.2 mg/dL
Ca (3 h): 11 mg/dL
Cl (3 h): 105.2 meq/L
DBIL (3 h): 0.008 mg/dL
GLC (3 h): 173.4 mg/dL
IP (3 h): 9.2 mg/dL
K (3 h): 3.9 meq/L
LDH (3 h): 58.4 IU/L
Na (3 h): 143.2 meq/L
PL (3 h): 143.4 mg/dL
RALB (3 h): 2.6 g/dL
TBIL (3 h): 0.06 mg/dL
TC (3 h): 79.6 mg/dL
TG (3 h): 50.8 mg/dL
TP (3 h): 5.3 g/dL
gamma-GTP (3 h): 1 IU/L
TERMINAL_BW (6 h): 211.8 g
APTT (6 h): 16.8 s
Bas (6 h): 0%
Eos (6 h): 0.4%
Fbg (6 h): 302.8 mg/dL
Hb (6 h): 13.9 g/dL
Ht (6 h): 42.3%
Lym (6 h): 77.2%
MCH (6 h): 21.3 pg
MCHC (6 h): 32.9%
MCV (6 h): 64.8 fL
Mono (6 h): 2.6%
Neu (6 h): 19%
PT (6 h): 14 s
Plat (6 h): 123.2 x10_4/uL
RBC (6 h): 653.2 x10_4/ul
Ret (6 h): 7.4%
WBC (6 h): 93.6 x10_2/uL
KIDNEY_L (6 h): 1 g
KIDNEY_R (6 h): 1 g
KIDNEY_TOTAL (6 h): 1.9 g
LIVER (6 h): 9.6 g
A/G (6 h): 0.9
ALP (6 h): 1424.2 IU/L
ALT (6 h): 34.6 IU/L
AST (6 h): 69.2 IU/L
BUN (6 h): 9.6 mg/dL
CRE (6 h): 0.2 mg/dL
Ca (6 h): 10.8 mg/dL
Cl (6 h): 104.6 meq/L
DBIL (6 h): 0.012 mg/dL
GLC (6 h): 179.2 mg/dL
IP (6 h): 9.7 mg/dL
K (6 h): 4.2 meq/L
LDH (6 h): 57.2 IU/L
Na (6 h): 142.8 meq/L
PL (6 h): 146.8 mg/dL
RALB (6 h): 2.6 g/dL
TBIL (6 h): 0.066 mg/dL
TC (6 h): 77.8 mg/dL
TG (6 h): 84 mg/dL
TP (6 h): 5.3 g/dL
gamma-GTP (6 h): 1.2 IU/L
TERMINAL_BW (9 h): 210.8 g
APTT (9 h): 16.3 s
Bas (9 h): 0.2%
Eos (9 h): 1%
Fbg (9 h): 304.2 mg/dL
Hb (9 h): 13.6 g/dL
Ht (9 h): 41.1%
Lym (9 h): 73%
MCH (9 h): 20.5 pg
MCHC (9 h): 33%
MCV (9 h): 62.2 fL
Mono (9 h): 2%
Neu (9 h): 23.2%
PT (9 h): 14 s
Plat (9 h): 119.1 x10_4/uL
RBC (9 h): 661.2 x10_4/ul
Ret (9 h): 7.1%
WBC (9 h): 83.6 x10_2/uL
KIDNEY_L (9 h): 1 g
KIDNEY_R (9 h): 1 g
KIDNEY_TOTAL (9 h): 1.9 g
LIVER (9 h): 8.5 g
A/G (9 h): 1
ALP (9 h): 1497.4 IU/L
ALT (9 h): 36.6 IU/L
AST (9 h): 68 IU/L
BUN (9 h): 10 mg/dL
CRE (9 h): 0.2 mg/dL
Ca (9 h): 10.6 mg/dL
Cl (9 h): 106 meq/L
DBIL (9 h): 0.008 mg/dL
GLC (9 h): 173.8 mg/dL
IP (9 h): 9.4 mg/dL
K (9 h): 3.9 meq/L
LDH (9 h): 53.2 IU/L
Na (9 h): 143.6 meq/L
PL (9 h): 132.6 mg/dL
RALB (9 h): 2.5 g/dL
TBIL (9 h): 0.058 mg/dL
TC (9 h): 74 mg/dL
TG (9 h): 41.4 mg/dL
TP (9 h): 5.2 g/dL
gamma-GTP (9 h): 1.4 IU/L
TERMINAL_BW (24 h): 228.1 g
APTT (24 h): 17.1 s
Bas (24 h): 0%
Eos (24 h): 1%
Fbg (24 h): 291 mg/dL
Hb (24 h): 14 g/dL
Ht (24 h): 41.9%
Lym (24 h): 76%
MCH (24 h): 21.5 pg
MCHC (24 h): 33.4%
MCV (24 h): 64.3 fL
Mono (24 h): 2.2%
Neu (24 h): 19.8%
PT (24 h): 13.7 s
Plat (24 h): 120.8 x10_4/uL
RBC (24 h): 652 x10_4/ul
Ret (24 h): 6.9%
WBC (24 h): 78.2 x10_2/uL
KIDNEY_L (24 h): 1 g
KIDNEY_R (24 h): 1 g
KIDNEY_TOTAL (24 h): 2 g
LIVER (24 h): 10.9 g
A/G (24 h): 0.9
ALP (24 h): 1674.6 IU/L
ALT (24 h): 47.4 IU/L
AST (24 h): 72.2 IU/L
BUN (24 h): 15 mg/dL
CRE (24 h): 0.2 mg/dL
Ca (24 h): 11.2 mg/dL
Cl (24 h): 104.2 meq/L
DBIL (24 h): 0.01 mg/dL
GLC (24 h): 188.6 mg/dL
IP (24 h): 8.2 mg/dL
K (24 h): 4.2 meq/L
LDH (24 h): 72.4 IU/L
Na (24 h): 142.6 meq/L
PL (24 h): 158.6 mg/dL
RALB (24 h): 2.7 g/dL
TBIL (24 h): 0.044 mg/dL
TC (24 h): 80.2 mg/dL
TG (24 h): 109.8 mg/dL
TP (24 h): 5.5 g/dL
gamma-GTP (24 h): 1 IU/L

Reference: ChEMBL document CHEMBL3885861, “Open TG-GATES”
